From patent US8501446B2 (Vertex Pharmaceuticals Incorporated, priority 2004, dated 2013)

Experiments:
Assay type in all cases: biochemical
JAK2 = JAK2 (Homo sapiens, UniProt O60674); test: JAK2 inhibition assay (radioactive enzyme assay, as for JAK3); details: average Ki if more than one value determined
Description: (§1) Compounds were screened for their ability to inhibit JAK3 using a standard radioactive enzyme assay. 1.5 μL/well of a DMSO stock containing serial dilutions of a compound of the present invention (concentrations ranging from 667 μM to 46 nM) was placed in a 96 well polycarbonate plate. 50 μL per well of kinase buffer (100 mM HEPES (pH 7.4), 10 mM MgCl2, 25 mM NaCl, 1 mM DTT, and 0.01% bovine serum albumin (BSA)) containing 2 μM poly(Glu)4Tyr and 10 μM ATP was also added to the plate. To initiate the reaction, 50 μL kinase buffer containing 2 nM JAK3 enzyme was added. Final ATP concentration was 5 μM [γ-^33P] ATP (200 μCi ^33P ATP/μmol ATP (Perkin Elmer, Cambridge, Mass.). After 20 minutes at room temperature (25° C.), the reaction was stopped by adding 50 μL 20% trichloroacetic acid (TCA)/0.4 mM ATP to each well. The entire content of each well was then transferred to a 96 well glass fiber filter plate using a TomTek Cell Harvester. After washing, 60 μL scintillation fluid was added and ^33P incorporation detected using a Perkin Elmer TopCount. After removing mean background values for all of the data points the data was fit using Prism software to obtain a Ki(app). Inhibition of JAK2 was measured as above except that final poly(Glu)4Tyr concentration was 15 μM and final ATP concentration was 12 μM.

JAK3 = target: T1, JAK3 (Homo sapiens, UniProt P52333); test: JAK3 inhibition assay (standard radioactive enzyme assay); details: average Ki if more than one value determined
T1 sequence (P52333 1-1124): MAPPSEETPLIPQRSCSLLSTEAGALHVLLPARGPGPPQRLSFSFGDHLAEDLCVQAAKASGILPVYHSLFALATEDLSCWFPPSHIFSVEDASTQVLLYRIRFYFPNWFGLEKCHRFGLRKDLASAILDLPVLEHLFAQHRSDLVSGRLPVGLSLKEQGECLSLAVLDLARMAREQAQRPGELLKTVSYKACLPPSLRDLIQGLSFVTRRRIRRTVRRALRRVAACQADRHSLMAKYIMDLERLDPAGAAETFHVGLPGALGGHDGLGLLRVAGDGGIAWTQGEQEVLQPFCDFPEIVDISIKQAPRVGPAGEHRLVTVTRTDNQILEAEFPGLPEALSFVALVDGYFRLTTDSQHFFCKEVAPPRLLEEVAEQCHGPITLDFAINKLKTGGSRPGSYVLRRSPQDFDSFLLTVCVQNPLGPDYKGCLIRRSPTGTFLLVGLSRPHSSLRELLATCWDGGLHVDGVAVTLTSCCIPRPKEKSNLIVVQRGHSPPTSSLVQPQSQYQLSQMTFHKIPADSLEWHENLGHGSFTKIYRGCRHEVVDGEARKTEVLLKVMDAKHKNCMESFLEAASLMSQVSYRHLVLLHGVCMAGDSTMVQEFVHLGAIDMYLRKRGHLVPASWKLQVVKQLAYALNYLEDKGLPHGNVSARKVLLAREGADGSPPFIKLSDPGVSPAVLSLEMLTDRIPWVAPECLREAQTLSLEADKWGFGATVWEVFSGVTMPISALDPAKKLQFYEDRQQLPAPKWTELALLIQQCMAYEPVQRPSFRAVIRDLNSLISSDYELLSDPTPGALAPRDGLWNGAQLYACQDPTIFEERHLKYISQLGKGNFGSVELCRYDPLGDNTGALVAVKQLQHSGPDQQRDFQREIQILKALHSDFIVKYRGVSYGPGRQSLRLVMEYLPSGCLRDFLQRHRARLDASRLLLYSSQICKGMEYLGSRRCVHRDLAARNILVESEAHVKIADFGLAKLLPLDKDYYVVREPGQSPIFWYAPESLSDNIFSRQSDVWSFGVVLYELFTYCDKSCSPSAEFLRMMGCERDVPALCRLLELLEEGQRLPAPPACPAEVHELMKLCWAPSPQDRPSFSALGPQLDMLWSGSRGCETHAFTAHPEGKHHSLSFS
Description: as §1

ROCK I (AA 6-553) = target: T2, ROCK I (AA 6-553) (Homo sapiens, UniProt Q13464); test: ROCK inhibition assay, standard coupled enzyme system ("Enzyme"); details: enzyme-linked assay
T2 construct: ROCK I (AA 6-553)
T2 sequence (Q13464 6-553, species assumed): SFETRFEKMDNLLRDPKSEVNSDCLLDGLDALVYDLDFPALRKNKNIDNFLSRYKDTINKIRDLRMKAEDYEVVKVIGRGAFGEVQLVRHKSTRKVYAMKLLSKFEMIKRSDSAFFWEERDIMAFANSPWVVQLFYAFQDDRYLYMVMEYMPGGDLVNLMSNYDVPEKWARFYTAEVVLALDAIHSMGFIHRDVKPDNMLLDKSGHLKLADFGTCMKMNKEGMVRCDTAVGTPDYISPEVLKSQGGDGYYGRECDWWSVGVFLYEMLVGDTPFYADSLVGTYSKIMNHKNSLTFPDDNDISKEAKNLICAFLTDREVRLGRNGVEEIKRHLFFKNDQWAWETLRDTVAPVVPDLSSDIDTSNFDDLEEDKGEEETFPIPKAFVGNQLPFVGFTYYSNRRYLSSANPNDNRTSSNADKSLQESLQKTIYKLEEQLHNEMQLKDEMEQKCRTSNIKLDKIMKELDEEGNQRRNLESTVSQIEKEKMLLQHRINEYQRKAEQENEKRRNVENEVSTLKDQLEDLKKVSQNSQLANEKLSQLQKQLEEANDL
Summary of the method: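 ROCK I (AA 6-553) at 45 nM and 30 °C with 45 μM ATP and 200 μM peptide, in 100 mM HEPES pH 7.5, 10 mM MgCl2, 25 mM NaCl, 2 mM DTT, 1.5% DMSO. ADP output read by a PK/LDH coupled system: 2.5 mM PEP, 350 μM NADH, 30 μg/ml PK, 10 μg/ml LDH.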

JAK2, sequence (O60674 whole entry, species assumed): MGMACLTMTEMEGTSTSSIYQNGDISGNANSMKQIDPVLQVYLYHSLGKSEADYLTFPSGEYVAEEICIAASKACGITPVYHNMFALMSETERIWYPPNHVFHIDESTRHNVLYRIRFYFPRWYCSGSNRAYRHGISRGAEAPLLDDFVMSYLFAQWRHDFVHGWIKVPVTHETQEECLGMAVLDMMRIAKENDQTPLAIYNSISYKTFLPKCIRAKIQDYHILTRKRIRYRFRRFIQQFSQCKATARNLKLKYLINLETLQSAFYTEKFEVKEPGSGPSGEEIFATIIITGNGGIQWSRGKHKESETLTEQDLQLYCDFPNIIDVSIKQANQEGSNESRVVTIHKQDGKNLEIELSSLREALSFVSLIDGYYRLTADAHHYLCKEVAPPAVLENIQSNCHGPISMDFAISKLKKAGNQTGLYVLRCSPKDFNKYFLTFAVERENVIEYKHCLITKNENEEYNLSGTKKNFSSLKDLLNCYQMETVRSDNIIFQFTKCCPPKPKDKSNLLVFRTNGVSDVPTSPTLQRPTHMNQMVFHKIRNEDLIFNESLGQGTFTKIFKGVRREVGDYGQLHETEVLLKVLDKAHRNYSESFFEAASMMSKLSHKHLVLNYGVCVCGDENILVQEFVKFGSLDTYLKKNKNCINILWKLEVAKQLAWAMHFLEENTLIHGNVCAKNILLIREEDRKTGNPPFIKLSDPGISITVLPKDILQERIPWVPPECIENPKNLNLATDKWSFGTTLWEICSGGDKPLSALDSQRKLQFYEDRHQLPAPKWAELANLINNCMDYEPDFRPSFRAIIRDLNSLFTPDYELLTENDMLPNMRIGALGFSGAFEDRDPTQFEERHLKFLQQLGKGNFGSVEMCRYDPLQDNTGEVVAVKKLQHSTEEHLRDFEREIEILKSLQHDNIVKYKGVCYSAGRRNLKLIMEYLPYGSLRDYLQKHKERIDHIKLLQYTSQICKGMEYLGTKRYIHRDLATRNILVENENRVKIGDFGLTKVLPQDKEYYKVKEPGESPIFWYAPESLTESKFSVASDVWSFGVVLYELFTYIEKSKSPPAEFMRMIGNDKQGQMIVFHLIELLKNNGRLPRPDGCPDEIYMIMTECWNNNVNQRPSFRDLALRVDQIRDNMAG

Ki (JAK2) [nM] | Ki (JAK3) [nM] | Ki (ROCK I (AA 6-553)) [nM] | SMILES
< 500 | < 500 | 500 to 5000 | CC(C)CC(=O)N1CCN(c2cccc(-c3c[nH]c4ncc(Cl)cc34)n2)CC1 [Compound 89]
< 500 | < 500 | 500 to 5000 | CC(=O)N1[C@H](C)CN(c2cccc(-c3c[nH]c4ncc(NC(=O)c5ccc(F)cc5)cc34)n2)C[C@@H]1C [Compound 189]
< 500 | < 500 | 500 to 5000 | COC(=O)Nc1cccc(-c2c[nH]c3ncc(Cl)cc23)n1 [Compound 87]
500 to 5000 | < 500 | < 500 | Nc1cc(C(=O)O)cc(-c2c[nH]c3ncc(Cl)cc23)c1 [Compound 148]
500 to 5000 | < 500 | 500 to 5000 | Clc1cnc2[nH]cc(-c3ccc4ncccc4c3)c2c1 [Compound 200]
< 500 | < 500 | 500 to 5000 | CC(=O)N1[C@H](C)CN(c2cccc(-c3c[nH]c4ncc(NC(=O)OCC(C)(C)C)cc34)n2)C[C@@H]1C [Compound 64]
> 5000 | 500 to 5000 | 500 to 5000 | Cc1cc(C(F)(F)F)cc(-c2c[nH]c3ncc(Cl)cc23)n1 [Compound 196]
> 5000 | 500 to 5000 | 500 to 5000 | CC(=O)N1CCCN(c2cccc(-c3c[nH]c4ncc(C(=O)O)cc34)n2)CC1 [Compound 126]
500 to 5000 | 500 to 5000 | 500 to 5000 | CC(=O)N1[C@H](C)CN(c2cccc(-c3c[nH]c4ncc(OCCN(C)C)cc34)n2)C[C@@H]1C [Compound 94]
500 to 5000 | < 500 | 500 to 5000 | C[C@@H](Nc1cccc(-c2c[nH]c3ncc(Cl)cc23)n1)C1CCCCC1 [Compound 129]
< 500 | < 500 | 500 to 5000 | C=CC(=O)Nc1cnc2[nH]cc(-c3cccc(N4CCCN(C(=O)CC#N)CC4)n3)c2c1 [Compound 138]
< 500 | < 500 | 500 to 5000 | NC(=O)c1ccc(-c2c[nH]c3ncc(Cl)cc23)nc1 [Compound 107]
< 500 | < 500 | < 500 | CC(=O)N1[C@H](C)CN(c2cccc(-c3c[nH]c4ncc(NC(=O)c5ccccc5Cl)cc34)n2)C[C@@H]1C [Compound 173]
< 500 | < 500 | 500 to 5000 | CC(=O)N1CCCN(c2cc(C#N)cc(-c3c[nH]c4ncc(Cl)cc34)n2)CC1 [Compound 149]
< 500 | < 500 | 500 to 5000 | CC(=O)N1[C@H](C)CN(c2cccc(-c3c[nH]c4ncc(NC(=O)[C@H]5CCCCN5)cc34)n2)C[C@@H]1C [Compound 171]
< 500 | < 500 | 500 to 5000 | O=C(O)c1ccc(-c2c[nH]c3ncc(Cl)cc23)nc1 [Compound 106]
< 500 | < 500 | 500 to 5000 | CC(=O)N1[C@H](C)CN(c2cccc(-c3c[nH]c4ncc(C(=O)NCCCN5CCN(C)CC5)cc34)n2)C[C@@H]1C [Compound 109]
> 5000 | 500 to 5000 | 500 to 5000 | Cc1cc(-c2c[nH]c3ncc(Cl)cc23)c2ccccc2n1 [Compound 198]
< 500 | < 500 | 500 to 5000 | CC(=O)Nc1cc(-c2c[nH]c3ncc(Cl)cc23)nc(N2C[C@@H](C)N(C(C)=O)[C@@H](C)C2)c1 [Compound 160]
< 500 | < 500 | 500 to 5000 | CCC(=O)Nc1cnc2[nH]cc(-c3cccc(N4CCCN(C(C)=O)CC4)n3)c2c1 [Compound 141]

Ki (JAK2) [nM] | Ki (JAK3) [nM] | Ki (ROCK I (AA 6-553)) [nM] | SMILES
< 500 | < 500 | 500 to 5000 | CC(C)COC(=O)Nc1cccc(-c2c[nH]c3ncc(Cl)cc23)n1 [Compound 90]
< 500 | < 500 | < 500 | CC(C)[C@H](CO)Nc1cccc(-c2c[nH]c3ncc(Cl)cc23)n1 [Compound 135]
500 to 5000 | 500 to 5000 | 500 to 5000 | CC(=O)N1[C@H](C)CN(c2cccc(-c3c[nH]c4ncc(C(=O)N5CCOCC5)cc34)n2)C[C@@H]1C [Compound 51]
< 500 | < 500 | < 500 | CC(=O)N1[C@H](C)CN(c2cccc(-c3c[nH]c4ncc(OCc5ccccc5)cc34)n2)C[C@@H]1C [Compound 193]
< 500 | < 500 | 500 to 5000 | CCCC(=O)N1CCN(c2cccc(-c3c[nH]c4ncc(Cl)cc34)n2)CC1 [Compound 86]
< 500 | < 500 | 500 to 5000 | CC(=O)N1[C@H](C)CN(c2cccc(-c3c[nH]c4ncc(Cl)cc34)c2)C[C@@H]1C [Compound 146]
< 500 | < 500 | 500 to 5000 | CCC(=O)N1CCN(c2cccc(-c3c[nH]c4ncc(Cl)cc34)n2)CC1 [Compound 85]
< 500 | < 500 | 500 to 5000 | Clc1cnc2[nH]cc(-c3ccccc3)c2c1 [Compound 183]
< 500 | < 500 | 500 to 5000 | COc1cccc(-c2c[nH]c3ncc(Cl)cc23)n1 [Compound 201]
< 500 | < 500 | 500 to 5000 | CC(=O)N1[C@H](C)CN(c2cccc(-c3c[nH]c4ncc(NC(=O)CN5CCNCC5)cc34)n2)C[C@@H]1C [Compound 115]
< 500 | < 500 | 500 to 5000 | CC(=O)Nc1cnc2[nH]cc(-c3cccc(N4CCCN(C(C)=O)CC4)n3)c2c1 [Compound 140]
< 500 | < 500 | 500 to 5000 | Clc1cnc2[nH]cc(-c3cccc(NCc4ccccc4)c3)c2c1 [Compound 145]
< 500 | < 500 | 500 to 5000 | CCC(C)C(=O)Nc1cnc2[nH]cc(-c3cccc(N4C[C@@H](C)N(C(C)=O)[C@@H](C)C4)n3)c2c1 (stereo partly drawn) [Compound 180]
< 500 | < 500 | 500 to 5000 | CC(=O)N1[C@H](C)CN(c2cccc(-c3c[nH]c4ncc(C(=O)NCCN5CCOCC5)cc34)n2)C[C@@H]1C [Compound 108]
< 500 | < 500 | 500 to 5000 | O=C(O)c1ccc(-c2c[nH]c3ncc(Cl)cc23)cc1 [Compound 104]
500 to 5000 | 500 to 5000 | 500 to 5000 | O=C(O)Cc1cccc(-c2c[nH]c3ncc(Cl)cc23)c1 [Compound 178]
500 to 5000 | 500 to 5000 | 500 to 5000 | Clc1cnc2[nH]cc(-c3cccc4cccnc34)c2c1 [Compound 202]
< 500 | < 500 | 500 to 5000 | CC(=O)N1CCCN(c2cccc(-c3c[nH]c4ncc(C)cc34)n2)CC1 [Compound 40]
< 500 | < 500 | 500 to 5000 | CC(=O)N1[C@H](C)CN(c2cccc(-c3c[nH]c4ncc(NC(=O)OC(C)C)cc34)n2)C[C@@H]1C [Compound 65]

SMILES | Ki (JAK2) [nM] | Ki (JAK3) [nM] | Ki (ROCK I (AA 6-553)) [nM]
CC(=O)N1[C@H](C)CN(c2cccc(-c3c[nH]c4ncc(NC(=O)Oc5ccc(C)cc5)cc34)n2)C[C@@H]1C [Compound 61] | < 500 | < 500 | 500 to 5000
